Test results published in US20150231167A1, “TREATMENT OF HEMATOLOGICAL NEOPLASMS” (THOMAS JEFFERSON UNIVERSITY, priority 2012, published 2015).
One block for each molecule: values may come before it.

Key:
[1] = biological target: T1, Stat5a (Homo sapiens, UniProt P42229); assay: Stat5a dimerization, co-immunoprecipitation of FLAG- and MYC-tagged Stat5a in PC-3 cells; assay type: cell-based; conditions: pre-treated 2 h, hPrl 10 nM 30 minutes
T1 construct: expressed in transfected cells; host or cells: PC-3
T1 sequence (P42229 1-794): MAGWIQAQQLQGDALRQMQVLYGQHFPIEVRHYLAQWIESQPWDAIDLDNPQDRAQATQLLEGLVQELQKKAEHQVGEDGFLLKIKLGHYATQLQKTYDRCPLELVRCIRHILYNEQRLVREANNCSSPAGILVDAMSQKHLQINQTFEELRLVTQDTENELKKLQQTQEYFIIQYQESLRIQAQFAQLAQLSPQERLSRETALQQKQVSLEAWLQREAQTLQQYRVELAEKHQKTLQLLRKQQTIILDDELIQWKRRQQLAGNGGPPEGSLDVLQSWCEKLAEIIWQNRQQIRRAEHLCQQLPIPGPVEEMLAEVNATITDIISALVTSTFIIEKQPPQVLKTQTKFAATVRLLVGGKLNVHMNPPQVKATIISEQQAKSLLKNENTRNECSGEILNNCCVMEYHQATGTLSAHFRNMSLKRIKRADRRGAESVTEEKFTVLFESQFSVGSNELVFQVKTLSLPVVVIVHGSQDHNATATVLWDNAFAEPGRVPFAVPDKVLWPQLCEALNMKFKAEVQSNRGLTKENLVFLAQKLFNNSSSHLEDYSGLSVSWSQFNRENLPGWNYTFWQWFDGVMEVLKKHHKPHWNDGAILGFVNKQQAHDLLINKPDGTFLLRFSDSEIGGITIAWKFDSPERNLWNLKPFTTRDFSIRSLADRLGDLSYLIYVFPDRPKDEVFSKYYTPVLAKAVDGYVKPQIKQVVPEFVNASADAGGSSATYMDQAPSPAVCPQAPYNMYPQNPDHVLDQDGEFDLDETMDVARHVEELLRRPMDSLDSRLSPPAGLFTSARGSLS
Description: FLAG-tagged Stat5a and MYC-tagged Stat5a were generated as follows by standard molecular biology cloning techniques. Plasmid pCMV3-FLAG-Stat5a, pCMV3-MYC-Stat5a and pPr1R were co-transfected using FuGENE6 (Roche) into PC-3 cells (2 μg of each plasmid per 1×10^7 cells). The cells were starved for 20 hours, pre-treated with N^6-benzyladenosine for 2 h, then stimulated with hPrl (10 nM) in RPMI 1640 without serum for 30 minutes. The cell lysates were immunoprecipitated with 25 μl anti-FLAG M2 […] affinity gel (2 μg/ml, Sigma), anti-MYC pAb (1 μg/ml, Upstate) or normal rabbit serum (NRS). The primary antibodies were used in the immunoblottings at the following concentrations: anti-FLAG pAb (1:1000; Stratagene), anti-MYC mAb (1:1000; Sigma), anti-Stat5a/b mAb (1:250) (Transduction Laboratories) detected by horseradish peroxidase-conjugated secondary antibodies.
Lanes 1, 2, 4, 6 and 8 represent cells stimulated with human prolactin (Prl) for 30 minutes which induces dimerization of Stat5. Two hours prior to Prl-stimulation, the cells had been treated with DMSO (lanes 1-4), the control compound C5 (lanes 5 and 6) or N^6-benzyladenosine (lanes 7 and 8) to test whether the Stat5a/b-inhibitor compound, N6BA, would be able to inhibit dimerization of Stat5. […] It should be noted the drug effect in this study was not due to cell apoptosis induction, as the treatment time was only 2 hours.

[2] = test system: K562 cells; assay: K562 cell viability, MTS metabolic activity assay; assay type: cell-based, human; conditions: 72 h at 3.1, 6.3, 12.5, 25 and 50 μM
Description: (§1) Exponentially growing K562 cells were treated with N6BAP or the control compound C5 for 72 h at 3.1, 6.3, 12.5, 25 and 50 μM indicated concentrations. The cell viability was assessed by MTS ([…]) metabolic activity assay (CellTiter 96® AQueous Assay kit).
as §1, with “K562 leukemia” for “K562”, “N6BA” for “N6BAP”, “μM” for “μM indicated”

[3] = test system: Stat5; assay: Stat5 transcriptional activity, beta-casein promoter luciferase reporter gene assay in PC-3 cells; assay type: cell-based, human; conditions: pretreated 1 hour, 10 nM hPrl for 16 hours, firefly/Renilla luciferase
Description: Cells of the human prostate cell line PC-3 were plated into 96-well plate at the density of 2×10^5 per well. After 24 hours of plating, cells were transiently co-transfected using FuGENE6 (Roche) with 0.25 μg of each of pStat5a or pStat5b, pPr1R (prolactin receptor) plasmids, 0.5 μg of pBeta-casein-luc and 0.025 μg of pRL-TK (Renilla luciferase plasmids as an internal control. After another 24 hours of transfection, the cells were starved in serum-free medium for 8 hours, pretreated with N^6-benzyladenosine (“N6BA”), or the control compound C5, for 1 hour, and then stimulated with 10 nM human prolactin (hPrl) in the serum-free medium for additional 16 hours. The lysates were assayed for firefly and Renilla luciferase activities using the Dual-Luciferase reporter assay system (Promega). Three independent experiments were carried out in triplicate. The firefly luciferase activity was normalized to the Renilla luciferase activity of the same sample, and the mean was calculated from the parallels. From the mean values of each independent run, the overall mean and its standard deviation (S.D.) were calculated.

[4] = test system: Stat5a/b; assay: Western blot of Stat5a/b phosphorylation in parental KCL22 cells (KCL22S); assay type: cell-based, human; conditions: various concentrations, 6 h or 16 h
Description: (§2) Exponentially growing KCL22 and KCL22R cells were treated with N6BAP at various concentrations for 6 h or 16 h after which the cells were harvested. Cell pellets were solubilized in lysis buffer [10 mM Tris-HCl (pH 7.6), 5 mM EDTA, 50 mM sodium chloride, 30 mM sodium pyrophosphate, 50 mM sodium fluoride, 1 mM sodium orthovanadate, 1% Triton X-100, 1 mM phenylmethylsulfonyl fluoride, 5 μg/ml aprotinin, 1 μg/ml pepstatin A, and 2 μg/ml leupeptin], rotated end-over-end at 4° C. for 60 min, and insoluble material was pelleted at 12,000×g for 30 min at 4° C. The protein concentrations of clarified cell lysates were determined by simplified Bradford method (Bio-Rad Laboratories, Hercules, Calif.). Western blotting of the lysates was carried out using, as primary antibodies, the following antibodies at the following concentrations: anti-phosphotyrosine-Stat5a/b (Y694/Y699) mAb (1 μg/ml, Advantex BioReagents, Conroe, Tex.), anti-Stat5ab mAb (1:250; BD Biosciences, San Jose, Calif.) or anti-actin pAb (Sigma). Anti-actin was included as a control.
(§3) Exponentially growing K562 cells were treated with N6BA for 3 h or 6 h after which the cells were harvested. […] The protein concentrations of clarified cell lysates were determined by simplified Bradford method (Bio-Rad Laboratories, Hercules, Calif.). […]

[5] = test system: Stat5a/b; assay: Western blot of Stat5a/b phosphorylation in K562 cells; assay type: cell-based, human
Description: (§4) Exponentially growing K562 cells were treated with 5 μM N6BAP or pimozide for 3 h after which the cells were harvested. Pimozide is a Stat5 inhibitor in leukemia cells (Nelson et al., Blood 117:3421-3429, 2011). Cell pellets were solubilized in lysis buffer [10 mM Tris-HCl (pH 7.6), 5 mM EDTA, 50 mM sodium chloride, 30 mM sodium pyrophosphate, 50 mM sodium fluoride, 1 mM sodium orthovanadate, 1% Triton X-100, 1 mM phenylmethylsulfonyl fluoride, 5 μg/ml aprotinin, 1 μg/ml pepstatin A, and 2 μg/ml leupeptin], rotated end-over-end at 4° C. for 60 min, and insoluble material was pelleted at 12,000×g for 30 min at 4° C. The protein concentrations of clarified cell lysates were determined by simplified Bradford method (Bio-Rad Laboratories, Hercules, Calif.). Western blotting of the lysates was carried out using, as primary antibodies, the following antibodies at the following concentrations: anti-phosphotyrosine-Stat5a/b (Y694/Y699) mAb (1 μg/ml, Advantex BioReagents, Conroe, Tex.), anti-Stat5ab mAb (1:250; BD Biosciences, San Jose, Calif.), anti-human Abl mAb (Calbiochem) or anti-phosphotyrosine mAb (Millipore).
as §3

[6] = test system: Stat5a/b; assay: Western blot of Stat5a/b phosphorylation in imatinib-resistant KCL22 cells (KCL22R); assay type: cell-based, human; conditions: various concentrations, 6 h or 16 h
Description: as §2, §3

[7] = biological target: T2, BCR-ABL (Homo sapiens, UniProt P00519); assay: Western blot of BCR-ABL phosphorylation and protein levels in K562 cells; assay type: cell-based; conditions: 5 μM, 3 h
T2 construct: endogenous in cells; host or cells: K562; the other entry of the earlier key: BCR (P11274, Breakpoint cluster region protein)
Description: as §4

[8] = test system: KCL22 T315I; assay: Growth of imatinib-resistant KCL22 T315I line, trypan blue viable cell count; assay type: cell-based, human; conditions: 5 μM; 24, 48, 72 and 96 hours
Description: (§5) KKCL22 and BV173 parent cell lines, and imatinib-resistant counterpart cell lines, were cultured in the presence culture medium without any compounds (Ctrl), DMSO (0.1%), the control compound C5 (5 μM) or N6BAP at 5 μM concentration. The imatinib-resistant lines are characterizes by the bcr-abl T315I mutation, which provides imatinib resistance. The cells were harvested at 24, 48, 72 and 96 hours, trypan blue stained and the numbers of viable cells were counted for each time-point.

[9] = test system: BV173 T315I; assay: Growth of imatinib-resistant BV173 T315I line, trypan blue viable cell count; assay type: cell-based, human; conditions: 5 μM; 24, 48, 72 and 96 hours
Description: as §5

[10] = test system: K562 parent cell line; assay: Growth of K562 parent cell line, trypan blue viable cell count; assay type: cell-based, human; conditions: 5 μM; 24, 48, 72 and 96 hours
Description: (§6) The K562 parent cell line and an imatinib-resistant K562 line were cultured in the presence of culture medium without any compounds (Ctrl), DMSO (0.1%), the control compound C5 (5 μM) or N6BAP at 5 μM concentration. The cells were harvested at 24, 48, 72 and 96 hours, trypan blue stained and the numbers of viable cells were counted for each time-point.

[11] = test system: BV173; assay: Growth of BV173 parent cell line, trypan blue viable cell count; assay type: cell-based, human; conditions: 5 μM; 24, 48, 72 and 96 hours
Description: as §5

[12] = test system: imatinib-resistant K562 line; assay: Growth of imatinib-resistant K562 line, trypan blue viable cell count; assay type: cell-based, human; conditions: 5 μM; 24, 48, 72 and 96 hours
Description: as §6

[13] = test system: KCL22; assay: Growth of KCL22 parent cell line, trypan blue viable cell count; assay type: cell-based, human; conditions: 5 μM; 24, 48, 72 and 96 hours
Description: as §5

[14] = test system: BCR-ABL-driven human leukemic cell lines; assay: Cell cycle progression analysis (data not shown); assay type: cell-based

T2 sequence (P00519 with tags, fused parts or gaps): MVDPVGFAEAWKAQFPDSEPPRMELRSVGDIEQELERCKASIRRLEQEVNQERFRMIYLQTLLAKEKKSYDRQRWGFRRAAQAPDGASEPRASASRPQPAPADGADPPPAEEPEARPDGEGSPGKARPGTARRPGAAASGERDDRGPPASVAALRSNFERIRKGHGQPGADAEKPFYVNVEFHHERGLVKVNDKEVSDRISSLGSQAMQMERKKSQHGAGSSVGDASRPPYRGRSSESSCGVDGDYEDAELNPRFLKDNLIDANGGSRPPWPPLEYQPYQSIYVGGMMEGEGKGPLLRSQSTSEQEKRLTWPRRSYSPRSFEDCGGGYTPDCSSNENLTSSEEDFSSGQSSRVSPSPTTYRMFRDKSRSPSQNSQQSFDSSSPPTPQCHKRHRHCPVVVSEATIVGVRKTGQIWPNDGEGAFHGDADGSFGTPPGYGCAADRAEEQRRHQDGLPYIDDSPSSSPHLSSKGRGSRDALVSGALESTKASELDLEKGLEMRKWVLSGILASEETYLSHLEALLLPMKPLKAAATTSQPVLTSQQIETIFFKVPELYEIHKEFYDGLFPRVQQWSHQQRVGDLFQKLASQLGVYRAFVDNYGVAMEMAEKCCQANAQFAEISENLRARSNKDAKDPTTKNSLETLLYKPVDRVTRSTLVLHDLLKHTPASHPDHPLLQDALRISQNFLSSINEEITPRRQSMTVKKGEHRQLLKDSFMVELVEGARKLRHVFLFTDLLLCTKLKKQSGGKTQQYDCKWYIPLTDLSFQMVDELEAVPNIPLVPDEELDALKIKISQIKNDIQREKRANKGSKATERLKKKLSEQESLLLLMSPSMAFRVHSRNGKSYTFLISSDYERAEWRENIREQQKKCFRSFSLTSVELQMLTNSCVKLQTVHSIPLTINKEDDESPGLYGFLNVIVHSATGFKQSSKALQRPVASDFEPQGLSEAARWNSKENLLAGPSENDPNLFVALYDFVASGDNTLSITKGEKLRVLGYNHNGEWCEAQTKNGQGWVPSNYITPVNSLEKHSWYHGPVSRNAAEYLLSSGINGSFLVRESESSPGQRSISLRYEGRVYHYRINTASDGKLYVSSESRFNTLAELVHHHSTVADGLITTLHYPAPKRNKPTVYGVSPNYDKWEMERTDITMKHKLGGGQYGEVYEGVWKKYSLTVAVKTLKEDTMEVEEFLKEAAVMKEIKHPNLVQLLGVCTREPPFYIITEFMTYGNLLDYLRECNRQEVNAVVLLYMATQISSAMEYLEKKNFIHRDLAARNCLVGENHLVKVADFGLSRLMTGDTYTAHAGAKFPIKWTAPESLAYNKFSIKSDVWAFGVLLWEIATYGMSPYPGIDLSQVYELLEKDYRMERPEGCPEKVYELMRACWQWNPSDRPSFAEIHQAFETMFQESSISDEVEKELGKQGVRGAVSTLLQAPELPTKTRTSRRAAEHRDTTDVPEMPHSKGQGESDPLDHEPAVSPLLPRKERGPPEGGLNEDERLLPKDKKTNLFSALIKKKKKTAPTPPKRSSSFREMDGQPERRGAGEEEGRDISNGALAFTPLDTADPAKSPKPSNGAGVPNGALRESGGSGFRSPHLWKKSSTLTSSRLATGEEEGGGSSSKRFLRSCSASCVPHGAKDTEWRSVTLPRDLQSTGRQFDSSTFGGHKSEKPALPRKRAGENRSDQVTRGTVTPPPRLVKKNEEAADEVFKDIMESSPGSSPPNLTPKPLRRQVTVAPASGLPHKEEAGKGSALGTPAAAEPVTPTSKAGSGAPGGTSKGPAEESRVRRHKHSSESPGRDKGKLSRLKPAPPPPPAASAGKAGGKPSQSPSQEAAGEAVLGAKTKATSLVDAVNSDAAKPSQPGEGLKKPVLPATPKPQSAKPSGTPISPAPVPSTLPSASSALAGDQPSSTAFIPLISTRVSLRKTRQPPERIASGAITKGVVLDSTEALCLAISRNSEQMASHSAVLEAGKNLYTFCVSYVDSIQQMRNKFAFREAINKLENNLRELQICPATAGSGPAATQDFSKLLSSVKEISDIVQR

Stat5a dimerization [1]: did not inhibit dimerization of Stat5a
Structure (SMILES): Nc1nc(SCc2cccnc2)[nH]c(=O)c1NC(=O)c1ccco1 [C5, reference compound]

Structure (SMILES): OC[C@H]1O[C@@H](n2cnc3c(NCc4ccccc4)ncnc32)[C@H](O)[C@@H]1O [N6BA, N^6-benzyladenosine]
number of viable K562 cells (MTS) [2]: decreased the number of K562 cells | Stat5a dimerization [1]: effectively inhibited Stat5a dimerization | transcriptional activity of Stat5 [3]: inhibits transcriptional activity of Stat5 | phosphorylation of Stat5 [4]: inhibits phosphorylation of Stat5 | phosphorylation of Stat5 ([5]; indicated concentrations, 3 h or 6 h): inhibits phosphorylation of Stat5 | phosphorylation of Stat5 [6]: inhibits phosphorylation of Stat5

BCR-ABL protein levels [7]: did not affect
Structure (SMILES): O=P(O)(O)OC[C@H]1O[C@@H](n2cnc3c(NCc4ccccc4)ncnc32)[C@H](O)[C@@H]1O [N6BAP, N^6-benzyladenosine-5′-monophosphate]
phosphorylation of BCR-ABL ([7]; anti-phosphotyrosine mAb): did not affect phosphorylation of BCR-ABL | number of viable K562 cells (MTS) [2]: reduces the number of viable K562 human leukemia cells | growth of imatinib-resistant KCL22 T315I [8]: blocked the growth of the corresponding imatinib-resistant cell lines | growth of imatinib-resistant BV173 T315I [9]: blocked the growth of the corresponding imatinib-resistant cell lines | growth of the parental K562 line [10]: blocked not only the growth of the parental K562 line | growth of parental cell line BV173 [11]: blocked not only the growth of the parental cell lines | growth of the imatinib-resistant K562 cell line [12]: blocked the growth of the imatinib-resistant cell line | phosphorylation of Stat5 [4]: blocks phosphorylation of Stat5 | phosphorylation of Stat5 ([5]; 5 μM, 3 h, Western blot anti-pYStat5): blocks phosphorylation of Stat5 | growth of parental cell line KCL22 [13]: blocked not only the growth of the parental cell lines | apoptotic death (cell cycle progression analysis) [14]: induced apoptotic death | phosphorylation of Stat5 [6]: blocks phosphorylation of Stat5
